Experiments:
[1] = phosphate buffered solution at pH 7.4; after 1 month under normal laboratory conditions of light and temperature; cited from earlier work
[2] = test system: vancomycin-resistant E. Faecalis (VRE); settings: ex-vivo; cited from earlier work
[3] = 3 months stability study at pH 7, 7.5 and 8 in amber glass vials; format: physicochemical; set-up: Assay: unit not given here; settings: for Acetal impurity / Amine impurity / Assay / Description / Regiomer / Sum impurities >0.05 / Total (impurity) / Triol impurity / pH: amber vials, HPβCD 40% w/w
Description: To optimize the HPβCD concentration and the pH of the solution for intravenous use, a 12 week/3 months stability study was conducted. […] Its stability was tested at regular intervals.
A comparison of stability profile at 3 different pH-7, 7.5 and 8—was carried out as below, the manufacturing process for all 3 formulations was kept constant with buffer strength at 19 mM.

[4] = test system: Methicillin sensitive Staphylococcus aureus (MSSA); settings: ex-vivo; cited from earlier work
[5] = 19 mM pH 7 phosphate buffer, 1 M
[6] = 19 mM pH 7 phosphate buffer, 2 M
[7] = 19 mM pH 7 phosphate buffer, 3 M
[8] = 19 mM pH 7 phosphate buffer, T0
[9] = 19 mM pH 7.5 phosphate buffer, 1 M
[10] = 19 mM pH 7.5 phosphate buffer, 2 M
[11] = 19 mM pH 7.5 phosphate buffer, 3 M
[12] = 19 mM pH 7.5 phosphate buffer, T0
[13] = 19 mM pH 8 phosphate buffer, 1 M
[14] = 19 mM pH 8 phosphate buffer, 2 M
[15] = 19 mM pH 8 phosphate buffer, 3 M
[16] = 19 mM pH 8 phosphate buffer, T0

CCCSc1nc(N[C@@H]2C[C@H]2c2ccc(F)c(F)c2)c2nnn([C@@H]3C[C@H](OCCO)[C@@H](O)[C@H]3O)c2n1 [ticagrelor, (1S,2S,3R,5S)-3-{7-[(1R,2S)-2-(3,4-difluorophenyl)cyclopropylamino]5-(propylthio)-3H-(1,2,3)triazolo (4,5-D)pyrimidin-3-yl}-5-(2 hydroxyethoxy) cyclopentane-1,2-diol]
ticagrelor concentrations in solution [1]: declined
minimal bactericidal concentration [2]: 20 microgram/ml
Acetal impurity [3, 5]: 0.05%
Amine impurity [3, 5]: 0.04%
Assay [3, 5]: 99.73
Description [3, 5]: clear
Regiomer [3, 5]: 0.03%
Sum impurities >0.05 [3, 5]: 0.05%
Total (impurity) [3, 5]: 0.27%
Triol impurity [3, 5]: 0.02%
pH [3, 5]: 7.34
Acetal impurity [3, 6]: 0.05%
Amine impurity [3, 6]: 0.04%
Assay [3, 6]: 99.81
Description [3, 6]: clear
Regiomer [3, 6]: 0.06%
Sum impurities >0.05 [3, 6]: 0.11%
Total (impurity) [3, 6]: 0.34%
Triol impurity [3, 6]: 0.04%
pH [3, 6]: 7.34
Acetal impurity [3, 7]: 0.05%
Amine impurity [3, 7]: 0.06%
Assay [3, 7]: 98.51
Description [3, 7]: clear
Regiomer [3, 7]: 0.11%
Sum impurities >0.05 [3, 7]: 0.22%
Total (impurity) [3, 7]: 0.40%
Triol impurity [3, 7]: 0.04%
pH [3, 7]: 7.30
Acetal impurity [3, 8]: 0.05%
Amine impurity [3, 8]: 0.04%
Assay [3, 8]: 98.95
Description [3, 8]: clear
Regiomer [3, 8]: 0.00%
Sum impurities >0.05 [3, 8]: 0.22%
Total (impurity) [3, 8]: 0.41%
Triol impurity [3, 8]: 0.05%
pH [3, 8]: 7.33
Acetal impurity [3, 9]: 0.05%
Amine impurity [3, 9]: 0.05%
Assay [3, 9]: 104.47
Description [3, 9]: clear
Regiomer [3, 9]: 0.01%
Sum impurities >0.05 [3, 9]: 0.14%
Total (impurity) [3, 9]: 0.32%
Triol impurity [3, 9]: 0.05%
pH [3, 9]: 7.50
Acetal impurity [3, 10]: 0.05%
Amine impurity [3, 10]: 0.05%
Assay [3, 10]: 102.59
Description [3, 10]: clear
Regiomer [3, 10]: 0.04%
Sum impurities >0.05 [3, 10]: 0.15%
Total (impurity) [3, 10]: 0.29%
Triol impurity [3, 10]: 0.05%
pH [3, 10]: 7.48
Acetal impurity [3, 11]: 0.05%
Amine impurity [3, 11]: 0.05%
Assay [3, 11]: 102.31
Description [3, 11]: clear
Regiomer [3, 11]: 0.08%
Sum impurities >0.05 [3, 11]: 0.23%
Total (impurity) [3, 11]: 0.41%
Triol impurity [3, 11]: 0.04%
pH [3, 11]: 7.55
Acetal impurity [3, 12]: 0.05%
Amine impurity [3, 12]: 0.04%
Assay [3, 12]: 104.27
Description [3, 12]: clear
Regiomer [3, 12]: 0.00%
Sum impurities >0.05 [3, 12]: 0.11%
Total (impurity) [3, 12]: 0.31%
Triol impurity [3, 12]: 0.04%
pH [3, 12]: 7.40
Acetal impurity [3, 13]: 0.05%
Amine impurity [3, 13]: 0.05%
Assay [3, 13]: 105.88
Description [3, 13]: clear
Regiomer [3, 13]: 0.01%
Sum impurities >0.05 [3, 13]: 0.09%
Total (impurity) [3, 13]: 0.26%
Triol impurity [3, 13]: 0.03%
pH [3, 13]: 8.10
Acetal impurity [3, 14]: 0.05%
Amine impurity [3, 14]: 0.05%
Assay [3, 14]: 105.46
Description [3, 14]: clear
Regiomer [3, 14]: 0.03%
Sum impurities >0.05 [3, 14]: 0.15%
Total (impurity) [3, 14]: 0.32%
Triol impurity [3, 14]: 0.05%
pH [3, 14]: 8.04
Acetal impurity [3, 15]: 0.05%
Amine impurity [3, 15]: 0.07%
Assay [3, 15]: 104.46
Description [3, 15]: clear
Regiomer [3, 15]: 0.06%
Sum impurities >0.05 [3, 15]: 0.23%
Total (impurity) [3, 15]: 0.37%
Triol impurity [3, 15]: 0.05%
pH [3, 15]: 8.03
Acetal impurity [3, 16]: 0.05%
Amine impurity [3, 16]: 0.04%
Assay [3, 16]: 103.25
Description [3, 16]: clear
Regiomer [3, 16]: 0.00%
Sum impurities >0.05 [3, 16]: 0.25%
Total (impurity) [3, 16]: 0.43%
Triol impurity [3, 16]: 0.06%
pH [3, 16]: 8.07
stability of ticagrelor solution in HPβCD (conclusion) ([3]; pH range of 7 to 8): stable
minimal bactericidal concentration [4]: 20 microgram/ml

— US20260007599A1, “TICAGRELOR IV FORMULATIONS FOR USE IN THE TREATMENT OF GRAM-POSITIVE BACTEREMIA” (Hyloris Developments SA, priority 2023, published 2026)
